This is an account of results in BindingDB's records for doi:10.1021/jm00105a061 (Zambeletti Research Laboratories, 1991).

Structures are written as SMILES. Counter-ions that a name gives are not always drawn.

The nature of assay [1]: Compound was evaluated for its binding affinity against Opioid receptor delta 1 subtype in guinea pig brain (minus cerebellum) using [3H]DADLE as radioligand.
The nature of assay [2]: Compound was evaluated for its binding affinity against opioid receptor delta subtype in guinea pig brain (minus cerebellum) using [3H]-DADLE as radioligand.

As usually defined, the Ki is a measure of affinity in units of concentration, obtained from inhibition or displacement. Read a low Ki as a stronger hold on the target.

`O=C(Cc1ccc(Cl)c(Cl)c1)N1CCCCC1CN1CCCC1` (stereo not drawn) returned an inhibition constant Ki in assay [1] of over 10 µM.

In turn, `O=C(Cc1ccc(O)cc1)N1CCCCC1CN1CCCC1` (stereo not drawn) had an inhibitory constant (Ki) in assay [2] of over 10 µM.

For the compound `CN1CCCC1C1CCCCN1C(=O)Cc1ccc(Cl)c(Cl)c1` (stereo not drawn) [(threo)2-(3,4-Dichloro-phenyl)-1-[2-(1-methyl-pyrrolidin-2-yl)-piperidin-1-yl]-ethanone(HCl)], the inhibitory constant (Ki) in assay [2] is over 10 µM.
